Test results published in PMC3712534 (The FEBS journal, 2013).

Columns and labels:
DUSP4 = target: T1, DUSP4 (Homo sapiens, UniProt Q13115); test: Inhibition of a panel of PTPs: DUSP4; format: biochemical
T1 sequence (Q13115 1-394): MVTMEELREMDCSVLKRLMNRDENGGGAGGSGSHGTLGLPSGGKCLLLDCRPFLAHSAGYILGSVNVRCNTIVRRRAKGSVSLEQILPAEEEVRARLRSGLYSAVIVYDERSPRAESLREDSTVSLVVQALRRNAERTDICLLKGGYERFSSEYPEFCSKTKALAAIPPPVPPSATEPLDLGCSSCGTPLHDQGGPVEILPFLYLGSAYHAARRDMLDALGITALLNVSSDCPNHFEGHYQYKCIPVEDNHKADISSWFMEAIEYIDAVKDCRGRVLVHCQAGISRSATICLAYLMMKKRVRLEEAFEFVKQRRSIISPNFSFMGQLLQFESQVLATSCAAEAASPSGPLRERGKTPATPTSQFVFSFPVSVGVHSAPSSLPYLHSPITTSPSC

PTP1B [1] = target: T2, PTP1B (Homo sapiens, UniProt P18031); test: Inhibition of a panel of PTPs: PTP1B phosphatase activity, DiFMUP substrate; format: biochemical
T2 sequence (P18031 1-405): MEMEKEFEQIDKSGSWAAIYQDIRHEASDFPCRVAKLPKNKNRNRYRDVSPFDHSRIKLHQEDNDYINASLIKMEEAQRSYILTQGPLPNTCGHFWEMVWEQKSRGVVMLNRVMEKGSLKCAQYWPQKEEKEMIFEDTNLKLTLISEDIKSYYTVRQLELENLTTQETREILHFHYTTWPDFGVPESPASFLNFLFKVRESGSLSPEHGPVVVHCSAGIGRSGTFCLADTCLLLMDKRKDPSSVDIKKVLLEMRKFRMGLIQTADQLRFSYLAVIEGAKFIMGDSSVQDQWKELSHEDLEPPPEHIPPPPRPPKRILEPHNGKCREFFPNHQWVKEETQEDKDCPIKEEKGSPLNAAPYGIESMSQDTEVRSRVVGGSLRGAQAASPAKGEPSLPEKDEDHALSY

LAR = LAR (Homo sapiens, UniProt P10586); test: Inhibition of a panel of PTPs: LAR; format: biochemical
LAR, sequence (P10586 30-1907, species assumed): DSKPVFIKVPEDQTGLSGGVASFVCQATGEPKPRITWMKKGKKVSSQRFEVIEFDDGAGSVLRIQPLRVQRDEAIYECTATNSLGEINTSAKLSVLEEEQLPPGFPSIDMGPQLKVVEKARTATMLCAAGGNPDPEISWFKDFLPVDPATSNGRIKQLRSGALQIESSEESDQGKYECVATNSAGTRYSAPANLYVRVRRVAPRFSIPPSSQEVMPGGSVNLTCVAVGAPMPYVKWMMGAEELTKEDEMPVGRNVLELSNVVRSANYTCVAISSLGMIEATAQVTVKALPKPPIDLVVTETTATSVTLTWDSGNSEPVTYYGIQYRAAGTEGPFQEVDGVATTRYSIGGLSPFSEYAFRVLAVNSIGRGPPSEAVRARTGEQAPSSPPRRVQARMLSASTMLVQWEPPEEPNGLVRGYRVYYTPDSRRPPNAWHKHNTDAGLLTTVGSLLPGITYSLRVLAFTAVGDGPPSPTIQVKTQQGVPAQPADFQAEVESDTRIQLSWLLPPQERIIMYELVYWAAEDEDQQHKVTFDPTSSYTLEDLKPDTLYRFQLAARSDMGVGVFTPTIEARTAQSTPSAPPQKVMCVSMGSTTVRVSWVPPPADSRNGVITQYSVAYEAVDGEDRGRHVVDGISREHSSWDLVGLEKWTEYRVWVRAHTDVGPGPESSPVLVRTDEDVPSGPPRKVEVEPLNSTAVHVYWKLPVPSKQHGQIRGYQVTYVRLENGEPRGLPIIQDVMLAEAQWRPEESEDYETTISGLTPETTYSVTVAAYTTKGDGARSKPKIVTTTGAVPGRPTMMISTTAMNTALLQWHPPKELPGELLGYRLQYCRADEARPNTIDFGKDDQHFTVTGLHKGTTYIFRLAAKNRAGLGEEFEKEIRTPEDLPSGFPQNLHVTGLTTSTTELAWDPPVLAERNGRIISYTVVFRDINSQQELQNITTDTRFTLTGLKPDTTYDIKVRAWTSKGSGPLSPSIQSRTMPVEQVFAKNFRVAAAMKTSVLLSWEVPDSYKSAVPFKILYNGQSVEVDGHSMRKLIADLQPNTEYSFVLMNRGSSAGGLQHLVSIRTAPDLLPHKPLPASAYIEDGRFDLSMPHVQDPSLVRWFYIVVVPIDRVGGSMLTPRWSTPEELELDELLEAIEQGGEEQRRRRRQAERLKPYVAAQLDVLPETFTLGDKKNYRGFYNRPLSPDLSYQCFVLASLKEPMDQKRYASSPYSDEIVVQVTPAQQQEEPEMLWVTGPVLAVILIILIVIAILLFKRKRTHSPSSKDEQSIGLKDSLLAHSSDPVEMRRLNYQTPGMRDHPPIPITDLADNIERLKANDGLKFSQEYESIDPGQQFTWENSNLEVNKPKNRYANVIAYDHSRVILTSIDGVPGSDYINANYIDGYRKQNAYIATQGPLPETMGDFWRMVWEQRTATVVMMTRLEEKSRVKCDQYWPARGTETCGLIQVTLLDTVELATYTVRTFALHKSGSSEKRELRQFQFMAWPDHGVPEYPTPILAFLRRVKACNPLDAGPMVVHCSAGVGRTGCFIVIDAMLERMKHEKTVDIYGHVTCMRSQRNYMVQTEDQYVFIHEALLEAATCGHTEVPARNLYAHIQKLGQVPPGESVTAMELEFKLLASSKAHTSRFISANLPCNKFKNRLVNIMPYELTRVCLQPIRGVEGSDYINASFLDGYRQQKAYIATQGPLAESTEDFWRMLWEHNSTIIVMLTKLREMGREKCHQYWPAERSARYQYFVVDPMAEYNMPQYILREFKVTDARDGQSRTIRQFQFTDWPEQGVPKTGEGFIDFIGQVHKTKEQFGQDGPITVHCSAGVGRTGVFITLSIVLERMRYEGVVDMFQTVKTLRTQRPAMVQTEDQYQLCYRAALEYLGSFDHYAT

PTP1B [2] = target: T2, PTP1B; test: Kinetics of time-dependent PTP1B inactivation, continuous DiFMUP assay; format: biochemical; settings: catalase 0.5 μg/mL (1 unit per assay); PTP1B 5 nM; HEPES pH 7.0, 5 mM DTT
PTP-PEST = target: T3, PTP-PEST (Homo sapiens, UniProt Q05209); test: Inhibition of a panel of PTPs: PTP-PEST; format: biochemical
T3 sequence (Q05209 1-780): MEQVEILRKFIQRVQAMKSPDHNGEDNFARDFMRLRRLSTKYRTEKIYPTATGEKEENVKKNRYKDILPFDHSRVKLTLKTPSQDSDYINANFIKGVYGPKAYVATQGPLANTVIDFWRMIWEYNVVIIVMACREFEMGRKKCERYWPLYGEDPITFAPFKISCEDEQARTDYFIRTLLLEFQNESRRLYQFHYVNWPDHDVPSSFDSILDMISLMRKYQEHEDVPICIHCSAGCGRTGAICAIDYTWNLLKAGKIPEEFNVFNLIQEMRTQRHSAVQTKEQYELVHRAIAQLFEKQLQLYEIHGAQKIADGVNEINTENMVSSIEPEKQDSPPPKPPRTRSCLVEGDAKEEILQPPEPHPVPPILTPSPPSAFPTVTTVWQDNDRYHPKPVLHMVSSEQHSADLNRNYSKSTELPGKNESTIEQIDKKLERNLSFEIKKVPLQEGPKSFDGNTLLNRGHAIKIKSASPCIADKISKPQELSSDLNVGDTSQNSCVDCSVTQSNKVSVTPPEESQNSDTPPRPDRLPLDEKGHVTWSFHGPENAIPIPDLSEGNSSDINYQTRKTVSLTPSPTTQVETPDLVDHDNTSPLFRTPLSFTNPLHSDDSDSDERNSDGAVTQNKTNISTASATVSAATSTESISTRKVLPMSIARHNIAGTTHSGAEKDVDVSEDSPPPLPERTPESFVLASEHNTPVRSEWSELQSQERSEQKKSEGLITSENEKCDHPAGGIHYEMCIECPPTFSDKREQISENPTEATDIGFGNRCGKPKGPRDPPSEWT

IKK family members = settings: cited from earlier work
DUSP16 = target: T4, DUSP16 (Homo sapiens, UniProt Q9BY84); test: Inhibition of a panel of PTPs: DUSP16; format: biochemical
T4 sequence (Q9BY84 1-665): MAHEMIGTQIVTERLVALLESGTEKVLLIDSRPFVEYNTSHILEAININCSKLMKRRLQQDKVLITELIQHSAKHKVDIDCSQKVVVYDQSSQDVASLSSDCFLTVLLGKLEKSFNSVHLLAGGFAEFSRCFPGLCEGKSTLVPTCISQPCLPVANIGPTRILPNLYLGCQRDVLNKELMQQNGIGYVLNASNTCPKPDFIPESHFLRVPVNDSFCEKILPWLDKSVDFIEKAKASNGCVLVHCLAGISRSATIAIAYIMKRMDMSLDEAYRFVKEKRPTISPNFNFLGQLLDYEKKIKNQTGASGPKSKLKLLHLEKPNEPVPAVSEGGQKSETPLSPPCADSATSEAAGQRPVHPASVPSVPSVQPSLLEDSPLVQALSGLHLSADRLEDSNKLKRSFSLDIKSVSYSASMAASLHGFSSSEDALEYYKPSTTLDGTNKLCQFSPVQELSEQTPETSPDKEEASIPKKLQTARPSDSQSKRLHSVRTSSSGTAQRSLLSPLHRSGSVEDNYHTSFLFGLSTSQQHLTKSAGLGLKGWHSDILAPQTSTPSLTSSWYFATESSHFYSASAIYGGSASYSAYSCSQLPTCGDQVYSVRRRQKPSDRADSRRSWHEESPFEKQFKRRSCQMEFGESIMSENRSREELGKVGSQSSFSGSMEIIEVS

DUSP14 = target: T5, DUSP14 (Homo sapiens, UniProt O95147); test: Inhibition of a panel of PTPs: DUSP14; format: biochemical
T5 sequence (O95147 1-198): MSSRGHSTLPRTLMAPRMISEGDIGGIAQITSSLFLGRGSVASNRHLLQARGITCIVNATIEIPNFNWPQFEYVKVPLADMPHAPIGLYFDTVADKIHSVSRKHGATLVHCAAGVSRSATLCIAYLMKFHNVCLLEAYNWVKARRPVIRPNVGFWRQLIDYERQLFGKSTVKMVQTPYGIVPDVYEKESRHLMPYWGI

TC-PTP = target: T6, TC-PTP (Homo sapiens, UniProt P17706); test: Inhibition of a panel of PTPs: TC-PTP; format: biochemical
T6 sequence (P17706 1-415): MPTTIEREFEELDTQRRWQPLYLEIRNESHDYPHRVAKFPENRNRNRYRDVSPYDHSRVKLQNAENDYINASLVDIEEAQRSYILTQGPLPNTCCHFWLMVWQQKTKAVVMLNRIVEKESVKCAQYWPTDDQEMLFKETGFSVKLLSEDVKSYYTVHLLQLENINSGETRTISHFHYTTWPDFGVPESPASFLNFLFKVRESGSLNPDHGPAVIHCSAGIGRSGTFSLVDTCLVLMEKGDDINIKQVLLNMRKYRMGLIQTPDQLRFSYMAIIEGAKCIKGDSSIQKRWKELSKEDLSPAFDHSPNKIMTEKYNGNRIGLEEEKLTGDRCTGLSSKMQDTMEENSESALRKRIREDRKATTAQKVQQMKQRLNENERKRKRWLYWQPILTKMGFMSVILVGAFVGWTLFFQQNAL

PTP-alpha = PTP-alpha (Homo sapiens, UniProt P18433); test: Inhibition of a panel of PTPs: PTP-alpha; format: biochemical
PTP-alpha, sequence (P18433 20-802): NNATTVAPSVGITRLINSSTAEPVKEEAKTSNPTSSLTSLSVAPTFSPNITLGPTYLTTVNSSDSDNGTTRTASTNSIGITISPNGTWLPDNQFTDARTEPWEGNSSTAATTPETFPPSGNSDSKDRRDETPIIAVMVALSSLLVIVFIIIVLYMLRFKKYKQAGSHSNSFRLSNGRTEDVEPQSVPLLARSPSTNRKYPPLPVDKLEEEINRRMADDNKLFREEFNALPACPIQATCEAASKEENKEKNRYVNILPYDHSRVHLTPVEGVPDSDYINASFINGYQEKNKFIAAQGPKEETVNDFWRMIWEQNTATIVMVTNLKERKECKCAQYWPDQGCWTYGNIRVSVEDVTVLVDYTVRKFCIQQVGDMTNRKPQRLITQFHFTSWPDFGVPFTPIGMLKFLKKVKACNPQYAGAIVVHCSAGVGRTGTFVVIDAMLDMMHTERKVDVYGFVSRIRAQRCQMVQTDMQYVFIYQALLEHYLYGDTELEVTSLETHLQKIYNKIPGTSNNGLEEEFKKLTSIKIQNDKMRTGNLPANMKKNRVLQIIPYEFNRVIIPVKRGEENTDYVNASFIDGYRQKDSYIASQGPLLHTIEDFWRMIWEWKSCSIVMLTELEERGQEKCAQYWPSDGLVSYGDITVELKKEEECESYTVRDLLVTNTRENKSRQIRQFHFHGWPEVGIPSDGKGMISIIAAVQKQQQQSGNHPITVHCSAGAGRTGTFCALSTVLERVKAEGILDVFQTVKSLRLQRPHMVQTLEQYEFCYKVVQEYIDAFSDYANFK

PTEN = PTEN (Homo sapiens, UniProt P60484); test: Inhibition of a panel of PTPs: PTEN; format: biochemical
PTEN, sequence (P60484 whole entry, species assumed): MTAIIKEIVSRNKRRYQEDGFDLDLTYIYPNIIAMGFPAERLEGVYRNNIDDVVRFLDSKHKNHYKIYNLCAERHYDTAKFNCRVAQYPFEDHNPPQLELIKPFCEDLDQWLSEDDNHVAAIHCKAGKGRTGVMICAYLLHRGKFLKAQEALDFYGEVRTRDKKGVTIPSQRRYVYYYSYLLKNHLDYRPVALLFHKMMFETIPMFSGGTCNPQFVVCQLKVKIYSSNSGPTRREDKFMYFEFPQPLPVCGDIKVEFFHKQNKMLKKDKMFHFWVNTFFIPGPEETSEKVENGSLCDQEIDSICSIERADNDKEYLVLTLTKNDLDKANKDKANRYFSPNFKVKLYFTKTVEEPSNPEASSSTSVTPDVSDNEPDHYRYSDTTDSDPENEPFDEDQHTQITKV

DUSP10 = target: T7, DUSP10 (Homo sapiens, UniProt Q9Y6W6); test: Inhibition of a panel of PTPs: DUSP10; format: biochemical
T7 sequence (Q9Y6W6 1-482): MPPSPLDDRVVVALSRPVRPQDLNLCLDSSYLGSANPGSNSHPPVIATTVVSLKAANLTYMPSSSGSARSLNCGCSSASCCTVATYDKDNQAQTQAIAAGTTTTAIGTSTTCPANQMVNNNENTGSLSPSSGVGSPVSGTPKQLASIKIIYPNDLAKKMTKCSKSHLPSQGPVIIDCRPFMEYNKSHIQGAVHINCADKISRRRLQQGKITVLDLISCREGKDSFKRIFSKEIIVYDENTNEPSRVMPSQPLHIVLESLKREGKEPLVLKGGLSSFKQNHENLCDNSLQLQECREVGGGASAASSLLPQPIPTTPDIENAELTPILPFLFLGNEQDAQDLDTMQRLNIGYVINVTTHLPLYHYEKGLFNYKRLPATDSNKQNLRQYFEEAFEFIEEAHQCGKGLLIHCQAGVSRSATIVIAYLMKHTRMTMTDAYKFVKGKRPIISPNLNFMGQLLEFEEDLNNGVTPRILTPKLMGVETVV

PTP1B [3] = target: T2, PTP1B; test: Michaelis-Menten analysis of PTP1B with DiFMUP without and with inhibitor; format: biochemical; settings: read-out: drop of maximum rate (Vmax) in the presence of inhibitor
PTP1B [4] = target: T2, PTP1B; settings: cited from earlier work
RAW 264 macrophages = test: Anti-phosphotyrosine; format: cell-based; settings: 1 mM, 30 minutes; in the presence and absence of LPS

Row | Structure (SMILES) | Ki (DUSP4) | Ki (PTP1B [1]) | Ki (LAR) | rate of inactivation of PTP1B in the absence and presence of catalase (PTP1B [2]) | Ki (PTP-PEST) | inhibition of IKK family members in vitro (IKK family members) | Ki (DUSP16) | Ki (DUSP14) | Ki (TC-PTP) | Ki (PTP-alpha) | Ki (PTEN) | Ki (DUSP10) | inhibition at 2 µM (PTP1B [3]) | rate of oxidation of the enzyme (PTP1B [4]) | extent of tyrosine phosphorylation (anti-pTyr immunoblot) (RAW 264 macrophages)
1 | Cc1ccc(S(=O)(=O)/C=C/C#N)cc1 [BAY 11-7082] | 140 µM | 1 µM | 2.5 µM | the same | 0.9 µM | does not inhibit | 125 µM | 180 µM | 1.5 µM | 2.3 µM | 100 µM | 150 µM | ~50% | – | –
2 | OO [H2O2, hydrogen peroxide] | – | – | – | – | – | – | – | – | – | – | – | – | – | 10 M⁻¹ s⁻¹ | –
3 | [Na+].[Na+].[Na+].[O]=[V]([O-])([O-])[O-] [sodium orthovanadate] | – | – | – | – | – | – | – | – | – | – | – | – | – | – | enhanced
4 | CC(C)(C)c1ccc(S(=O)(=O)/C=C/C#N)cc1 [BAY 11-7085] | 160 µM | 36 µM | 57 µM | – | 40 µM | – | 205 µM | 210 µM | 39 µM | 45 µM | 200 µM | 180 µM | – | – | –
